Series [1] relates to Hepatotoxicity.
For series [2], the system named is Hepatotoxicity. The source holds these as a separate data set.
For series [3], the system named is Hepatotoxicity. This is another data set of the same source.
Series [4] relates to Hepatotoxicity. This is another data set of the same source.
Series [5] concerns Hepatotoxicity. This is another data set of the same source.
In series [6] the test system is Hepatotoxicity. The source holds these as a separate data set.
Series [7] relates to Hepatotoxicity. This is another data set of the same source.
For series [8], the system named is Hepatotoxicity. The source holds these as a separate data set.
Series [9] concerns Hepatotoxicity. The source holds these as a separate data set.
Series [10] concerns Hepatotoxicity. This is another data set of the same source.
The subject of series [11] is Hepatotoxicity. This is another data set of the same source.
Series [12] relates to Hepatotoxicity. The source holds these as a separate data set.
The subject of series [13] is Hepatotoxicity. This is another data set of the same source.
Series [14] concerns Hepatotoxicity. The source holds these as a separate data set.
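Throughout, for HepSE Combined Scores: combined hepatic side effect score as listed in the training data of the Drug Induced Liver Injury Prediction System (DILIps).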
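Throughout, for HepSE bilirubinemia: bilirubinemia hepatic side effect score drawn from the DILIps training data, a prediction system for drug-induced liver injury; call rule not given here.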
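Throughout, for HepSE cholecystitis: Cholecystitis-related hepatic side effect score drawn from the DILIps (drug-induced liver injury prediction) training data set; call rule not given here.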
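Throughout, for HepSE cholelithiasis: hepatic side effect score for cholelithiasis, drawn from the DILIps training data for predicting drug-induced liver injury; call rule not given here.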
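Throughout, for HepSE cirrhosis: cirrhosis hepatic side effect score taken from the DILIps (drug-induced liver injury prediction) training set; call rule not given here.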
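Throughout, for HepSE elevated liver function tests: hepatic side effect score for raised liver function tests, as recorded in the DILIps training set used for predicting drug-induced liver injury.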
Throughout, for HepSE hepatic failure: call rule not given here.
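Throughout, for HepSE hepatic necrosis: score of hepatic side effects for hepatic necrosis, drawn from the training data of DILIps, a prediction system for drug-induced liver injury; call rule not given here.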
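Throughout, for HepSE hepatitis: Hepatitis-related hepatic side effect score taken from the training data of DILIps, a prediction system for drug-induced liver injury; call rule not given here.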
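Throughout, for HepSE hepatomegaly: hepatic side effect score for hepatomegaly, taken from the training set of the DILIps drug-induced liver injury prediction system; call rule not given here.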
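Throughout, for HepSE jaundice: Jaundice-related hepatic side-effect score drawn from the training data of the DILIps (drug-induced liver injury prediction system); call rule not given here.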
Throughout, for HepSE liver disease: call rule not given here.
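Throughout, for HepSE liver fatty: hepatic side effect score for fatty liver, taken from the DILIps training set for predicting drug-induced liver injury; call rule not given here.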
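Throughout, for HepSE liver function tests abnormal: hepatic side effect score taken from the DILIps (drug-induced liver injury prediction system) training data, here covering abnormal liver function test findings.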

`C=CC1=C(C(=O)O)N2C(=O)[C@@H](NC(=O)/C(=N\O)c3csc(N)n3)[C@H]2SC1` yielded a HepSE_bilirubinemia in the series on Hepatotoxicity [1] of 0. This compound registered a HepSE_cholecystitis with Hepatotoxicity [2] of 0. This compound had a HepSE_cholelithiasis in the series with Hepatotoxicity [3] of 0. In addition, in the series on Hepatotoxicity [4], the HepSE_cirrhosis amounted to 0. Also, in the series on Hepatotoxicity [5], the “HepSE_elevated liver function tests” value worked out at 0. The HepSE_hepatic failure in the series on Hepatotoxicity [6] was found to be 1. This compound also displayed a HepSE_hepatic necrosis with Hepatotoxicity [7] of 0. In addition, the HepSE_hepatitis with Hepatotoxicity [8] is 1. In the series on Hepatotoxicity [9], this compound came in with a HepSE_hepatomegaly of 0. This compound yielded a HepSE_jaundice in the series on Hepatotoxicity [10] of 1. This compound also showed a HepSE_liver disease with Hepatotoxicity [11] of 0. The compound also gave a HepSE_liver fatty in the series on Hepatotoxicity [12] of 0. Moreover, the “HepSE_liver function tests abnormal” value in the series with Hepatotoxicity [13] was found to be 0. Moreover, the “HepSE_Combined Scores” value in the series with Hepatotoxicity [14] turned out to be 3.

`CO/N=C(\C(=O)N[C@@H]1C(=O)N2C(C(=O)[O-])=C(C[N+]3(C)CCCC3)CS[C@H]12)c1csc(N)n1` returned a HepSE_bilirubinemia in the series with Hepatotoxicity [1] of 0. Also, the HepSE_cholecystitis in the series on Hepatotoxicity [2] was determined as 0. Further, in the series on Hepatotoxicity [3], the HepSE_cholelithiasis is 0. Further, in the series with Hepatotoxicity [4], the HepSE_cirrhosis is recorded as 0. In addition, the “HepSE_elevated liver function tests” value in the series on Hepatotoxicity [5] came out at 0. Moreover, in the series on Hepatotoxicity [6], the HepSE_hepatic failure is on record as 1. For the same compound, the HepSE_hepatic necrosis in the series with Hepatotoxicity [7] was determined as 0. The same compound gave a HepSE_hepatitis in the series on Hepatotoxicity [8] of 0. In the series on Hepatotoxicity [9], this compound gave a HepSE_hepatomegaly of 0. The same compound returned a HepSE_jaundice in the series on Hepatotoxicity [10] of 0. The HepSE_liver disease in the series on Hepatotoxicity [11] worked out at 0. In the series on Hepatotoxicity [12], this compound yielded a HepSE_liver fatty of 0. In addition, the “HepSE_liver function tests abnormal” value in the series with Hepatotoxicity [13] amounted to 0. Besides, the “HepSE_Combined Scores” value with Hepatotoxicity [14] was 1.

For `CN1CCCC(n2nc(Cc3ccc(Cl)cc3)c3ccccc3c2=O)CC1` (stereo not given) [AZELASTINE], in the series on Hepatotoxicity [1], the HepSE_bilirubinemia amounted to 0. Also, in the series with Hepatotoxicity [2], the HepSE_cholecystitis is listed as 0. Further, the HepSE_cholelithiasis with Hepatotoxicity [3] is 0. In the series on Hepatotoxicity [4], this compound came in with a HepSE_cirrhosis of 0. Moreover, the “HepSE_elevated liver function tests” value in the series on Hepatotoxicity [5] is 0. In the series on Hepatotoxicity [6], this compound gave a HepSE_hepatic failure of 0. In addition, in the series on Hepatotoxicity [7], the HepSE_hepatic necrosis was 0. In the series with Hepatotoxicity [8], the HepSE_hepatitis was found to be 0. The compound also returned a HepSE_hepatomegaly with Hepatotoxicity [9] of 0. For the same compound, the HepSE_jaundice in the series on Hepatotoxicity [10] stood at 0. Further, the HepSE_liver disease in the series on Hepatotoxicity [11] stood at 0. Moreover, in the series on Hepatotoxicity [12], the HepSE_liver fatty is listed as 0. The “HepSE_liver function tests abnormal” value in the series with Hepatotoxicity [13] was 0. In addition, the “HepSE_Combined Scores” value in the series on Hepatotoxicity [14] is listed as 0.

In turn, `CC[N+](CC)(CCNC(=O)C(=O)NCC[N+](CC)(CC)Cc1ccccc1Cl)Cc1ccccc1Cl` [AMBENONIUM] yielded a HepSE_bilirubinemia with Hepatotoxicity [1] of 0. For the same compound, in the series with Hepatotoxicity [2], the HepSE_cholecystitis was 0. Moreover, the HepSE_cholelithiasis in the series on Hepatotoxicity [3] was found to be 0. Besides, the HepSE_cirrhosis in the series with Hepatotoxicity [4] is given as 0. In the series on Hepatotoxicity [5], the “HepSE_elevated liver function tests” value turned out to be 0. The same compound displayed a HepSE_hepatic failure with Hepatotoxicity [6] of 0. The same compound showed a HepSE_hepatic necrosis in the series with Hepatotoxicity [7] of 0. In the series on Hepatotoxicity [8], this compound showed a HepSE_hepatitis of 0. Moreover, the HepSE_hepatomegaly in the series with Hepatotoxicity [9] was 0. The compound also registered a HepSE_jaundice in the series on Hepatotoxicity [10] of 0. Further, in the series with Hepatotoxicity [11], the HepSE_liver disease was 0. Further, the HepSE_liver fatty with Hepatotoxicity [12] was 0. The “HepSE_liver function tests abnormal” value with Hepatotoxicity [13] was 0. For the same compound, in the series with Hepatotoxicity [14], the “HepSE_Combined Scores” value is reported as 0.

For `CC(C)(C(=O)c1cccnc1)c1cccnc1` [METYRAPONE], the HepSE_bilirubinemia with Hepatotoxicity [1] (Liver) is reported as 0. For the same compound, the HepSE_cholecystitis with Hepatotoxicity [2] (Liver) is listed as 0. The compound also displayed a HepSE_cholelithiasis in the series with Hepatotoxicity [3] (Liver) of 0. The compound also yielded a HepSE_cirrhosis with Hepatotoxicity [4] (Liver) of 0. Further, the “HepSE_elevated liver function tests” value with Hepatotoxicity [5] (Liver) is reported as 0. The same compound displayed a HepSE_hepatic failure in the series on Hepatotoxicity [6] (Liver) of 0. The HepSE_hepatic necrosis with Hepatotoxicity [7] (Liver) is 0. Further, in the series on Hepatotoxicity [8] (Liver), the HepSE_hepatitis is listed as 0. In the series on Hepatotoxicity [9] (Liver), this compound had a HepSE_hepatomegaly of 0. This compound had a HepSE_jaundice with Hepatotoxicity [10] (Liver) of 0. The compound also showed a HepSE_liver disease in the series with Hepatotoxicity [11] (Liver) of 0. Besides, the HepSE_liver fatty with Hepatotoxicity [12] (Liver) came out at 0. The “HepSE_liver function tests abnormal” value in the series on Hepatotoxicity [13] (Liver) came out at 0. Further, the “HepSE_Combined Scores” value in the series with Hepatotoxicity [14] (Liver) is 0.

The values above are taken from ChEMBL document CHEMBL1909294, “Translating clinical findings into knowledge in drug safety evaluation--drug induced liver injury prediction system (DILIps)” (PLoS Comput Biol, 2011).
